Measurements from US20100216191A1, “Method for Manufacturing a Modified Peptide” (PROCOMCURE BIOTECH GMBH, priority 2007, published 2010).
Entries after “also recorded” stand apart in the source; their conditions may differ. Read-outs that look alike come from different tables or passages of the source. Where no end group is shown, it is not given here.

Assays:
His-tagged ClfB protein [1] = target: T1, His-tagged ClfB protein (Staphylococcus aureus, UniProt Q99R07); conditions: 5 μg spotted onto membrane, His-tag antibody detection
T1 sequence (Q99R07 45-841): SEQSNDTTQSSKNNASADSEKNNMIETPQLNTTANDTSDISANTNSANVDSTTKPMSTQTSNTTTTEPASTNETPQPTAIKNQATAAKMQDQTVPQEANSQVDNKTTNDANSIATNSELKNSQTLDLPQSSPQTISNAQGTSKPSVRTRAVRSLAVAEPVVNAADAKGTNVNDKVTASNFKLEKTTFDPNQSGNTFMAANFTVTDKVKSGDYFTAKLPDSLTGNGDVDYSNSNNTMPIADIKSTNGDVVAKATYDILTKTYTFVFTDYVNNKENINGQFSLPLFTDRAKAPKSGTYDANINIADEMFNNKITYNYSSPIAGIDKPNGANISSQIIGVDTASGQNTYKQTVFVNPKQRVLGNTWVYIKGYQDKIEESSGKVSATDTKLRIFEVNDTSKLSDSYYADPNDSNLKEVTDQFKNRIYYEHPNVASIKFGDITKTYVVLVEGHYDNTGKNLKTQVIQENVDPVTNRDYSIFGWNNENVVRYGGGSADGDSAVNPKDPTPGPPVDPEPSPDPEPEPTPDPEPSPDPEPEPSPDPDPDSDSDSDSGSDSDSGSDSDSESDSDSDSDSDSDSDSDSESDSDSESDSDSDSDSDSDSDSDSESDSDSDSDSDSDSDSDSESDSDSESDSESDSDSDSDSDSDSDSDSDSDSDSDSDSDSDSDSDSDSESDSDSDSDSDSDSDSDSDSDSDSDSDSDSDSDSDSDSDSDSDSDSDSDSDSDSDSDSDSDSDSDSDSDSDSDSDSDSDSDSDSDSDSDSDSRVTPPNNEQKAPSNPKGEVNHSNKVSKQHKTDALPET
Protocol: 7.1. […] This peptide was also synthesized.
Peptides were spotted onto a protein binding membrane and incubated with recombinant His-tagged ClfB protein. The irreversibly bound peptides can be targeted by additionally added ClfB. Bound ClfB protein is detected by a His-tag specific antibody (see FIG. 7).

ClfB [2] = target: T2, ClfB (Staphylococcus aureus, UniProt Q99R07); conditions: Y2H-strain AH109, prey plasmid pGADT7
T2 sequence (Q99R07 45-841): as above
Protocol: All constituents of this mini-library are tested directly in a binary manner against ClfB. • The identified interactions between ClfB and KRT6A, KRT8, and KRT5 (cf Table 1) were used for the experiment. • The interacting KRT-genes were compared in order to identify the plasmid harbouring the shortest KRT gene-fragment from the initial Y2H-screen. […] The clone with the smallest ClfB interacting DNA-insert is called clone clb10.1 • Clone clb10.1 was used as template for primer-design. PCR-primers were designed to lead to N-terminal truncations of the resulting protein. The clb10.1 DNA-template contains a 330 base pair DNA-fragment of the gene coding region of KRT8 (corresponds to a peptide of 110 amino acids). • The first primer-pair binds 45 bp downstream of the clb10.1 DNA-template resulting in a 45 by shortened DNA-fragment after PCR (the generated PCR-product contains a gene coding sequence of 285 bp). The resulting peptide encoded from this DNA is 95 amino acids. The PCR-product was cloned into an empty Y2H-prey plasmid, pGADT7. The plasmid was sequenced and the clone was named Frag1. • The second primer pair amplifies a PCR-product, which contains a gene coding sequence of 144 bp, which corresponds to a peptide of 48 amino acids. The PCR-product was cloned into an empty Y2H-prey plasmid, pGADT7. The plasmid was sequenced and the clone was named Frag2. • The third primer pair still amplifies the same gene coding sequence of KRT8, however the 3-primed untranslated region was removed. The 3-primed untranslated region is 241 bp long and not relevant for the interaction with ClfB protein. The removal of this 241 region was achieved by using a PCR-reverse primer, which binds upstream of this region in the DNA-template of clone 10.1. The resulting peptide, when translated from this PCR-product is still 48 amino acids. The PCR-product was cloned into an empty Y2H-prey plasmid, pGADT7. The plasmid was sequenced and the clone was named Frag2-CDS. • The fourth primer pair amplifies a PCR-product of 84 bp, which when translated into a protein will correspond to a peptide of 28 amino acids. The PCR-product was cloned into an empty Y2H-prey plasmid, pGADT7. The plasmid was sequenced and the clone was named Frag2-binding domain. • The fifth primer pair amplifies a PCR-product of 78 bp; when translated into a protein this fragment will correspond to a peptide of 26 amino acids. The PCR-product was cloned into an empty Y2H-prey plasmid, pGADT7. The plasmid was sequenced and the clone was named Frag3. • After PCR, the fragments were separated by gel-electrophoresis and the DNA was extracted from the gels by a commercial gel-extraction kit. The DNA was cut by restriction enzymes and cloned into the Y2H-plasmid pGADT7. The cloning reaction was introduced by plasmid transformation into E. coli. The transformation mixture was plated out onto plasmid-selective media containing the appropriate antibiotic. Growing colonies were inoculated into liquid media containing the same antibiotic, and the E. coli liquid culture was plasmid-purified and sequenced for confirmation. • Pure plasmid DNA from all constructs (Frag1, Frag2, Frag2-CDS, Frag2-binding domain, Frag3, clb10.1 clone, as well as full-length KRT6A, full-length KRT8, and full-length KRT5) were mixed to obtain a mini-library of different shortened fragments from the same interactor of ClfB.

ClfB [3] = target: T2, ClfB; assay type: cell-based, S. aureus; design: expressed in transfected cells; host or cells: yeast Y2H reporter strain AH109; conditions: among 100 clones after two rounds of selection against ClfB
[4] = target: binding of GST-tagged keratin fragment to ClfB-protein (Staphylococcus aureus, UniProt Q99R07); conditions: 1 μM peptide; densitometry, ImageJ
binding of GST-tagged keratin fragment to ClfB-protein, sequence (Q99R07 45-841): as above
Text: 7.2. […] Relative changes in pulled-down GST-tagged keratin fragment is quantified by densitometry using a flatbed scanner and the ImageJ software, provided by Wayne Rasband, National Institutes of Health. (ImageJ: http://rsb.info.nih.gov/ij/) See FIGS. 8 and 9

living S. aureus cells = assay: Adhesion assay with living S. aureus cells, crystal violet, absorbance at 595 nm; assay type: cell-based; conditions: 1 μg coated onto microwell-plates
Protocol: • All genes coding for the used recombinant proteins were cloned into the plasmid pDEST15. […] This protein served as negative control 1 • Affinity purified, recombinantly in E. coli produced GST-tagged Frag2-CDS (49 ng/μl). the amino acid sequence of Frag2-CDS is N-[…]-C (SEQ ID NO: 71) • Affinity purified, recombinantly in E. coli produced GST-tagged S. aureus protein, methionine sulfoxide reductase msrB, NCBI protein GI:54041496, was diluted to a final concentration of 30 ng/μl. This protein served as negative control 2 • Affinity purified, recombinantly in E. coli produced GST-tagged S. aureus protein, NADPH-dependent 7-cyano-7-deazaguanine reductase, NCBI protein GI:81781951, was diluted to a final concentration of 61 ng/μl. This protein served as negative control 3 • Human aortic elastin protein, 1 mg elastin was purchased from the company Elastin Products company, product number HA587 and solubilized in 1 ml H2O to get the final concentration of 1 μg/μl. This protein served as positive control 1 because elastin protein is known to bind to S. aureus. • Human fibrinogen protein was purchased from the company Enzyme Research Laboratories, product number FIB 1 3120L; […] was solubilized in 50 ml H2O to get the final concentration of 2 μg/μl. […]

GST-tagged FnbB = assay: Pull-down with GST-tagged FnbB, proteins from rabbit reticulocyte translation system; assay type: binding, S. aureus; conditions: cell-free protein translation system; GST alone as negative control
Text: Recombinant proteins were produced from the isolated plasmids from the PPI-partners in a rabbit reticulocyte-based translation system and additionally in E. coli cells. The produced recombinant proteins were used for pull-down and immunoprecipitation experiments.

ClfB [5] = target: T2, ClfB; conditions: for Relative interaction strength to ClfB compared to the original binder: X-Gal overlay assays and growth strength on 3AT media, AH109 cells; for More beta galactosidase in comparison to the original binder: X-Gal overlay, equal numbers of cells
His-tagged ClfB protein [6] = target: T1, His-tagged ClfB protein; conditions: detection with anti-GST antibodies; listed as GST-tagged Keratin 8 protein fragment
Text: (§1) 6.2.1. Recombinant Protein Production • The DNA-sequence coding for ClfB was cloned into a plasmid PET160 (a plasmid suitable for recombinant protein expression in E. coli and HIS-tag purification). The plasmid harbours a so-called HIS-tag, which is a DNA sequence coding for a stretch of six histidine residues. […]
(§2) 6.2.2. […] The GST-tagged peptide was purified by using a commercial GST-tag purification kit. • After several washing steps the remaining proteins are eluted from the magnetic beads • The eluted protein/peptide mixture is loaded on a SDS-page gel, separated, transferred onto a membrane, and probed with GST-tag specific antibodies and bound antibodies are detected by chemiluminescence signals on chemiluminescence films. • The following combinations of recombinant proteins/peptides were used in the pull-downs: • a) BSA+GST-tagged 48-aminoacid long peptide • b) His-tagged ClfB+GST-tagged 48-amino acid-peptide • c) Purified GST+GST-tagged 48-amino acid-peptide

BSA = BSA (Bos taurus, UniProt P02769); assay: In vitro pull-down with BSA coated beads; assay type: binding; conditions: detection with anti-GST antibodies; listed as GST-tagged peptide of 48-amino acids
Text: as §1, §2

GST = target: T3, GST (Schistosoma japonicum, UniProt P08515); assay: In vitro pull-down with GST coated beads; assay type: binding; conditions: detection with anti-GST antibodies; listed as GST-tagged peptide of 48-amino acids
T3 construct: purchased
T3 sequence (P08515 whole entry): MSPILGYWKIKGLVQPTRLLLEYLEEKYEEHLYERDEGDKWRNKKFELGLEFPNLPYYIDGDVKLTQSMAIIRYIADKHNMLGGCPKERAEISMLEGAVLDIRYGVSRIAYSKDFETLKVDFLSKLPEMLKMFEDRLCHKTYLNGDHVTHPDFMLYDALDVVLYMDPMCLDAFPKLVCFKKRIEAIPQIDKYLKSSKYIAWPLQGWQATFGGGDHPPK
Text: as §1, §2

[7] = target: T4, activation domain of yeast protein GAL4 (Saccharomyces cerevisiae, UniProt P04386); assay: Y2H specificity test against activation domain of GAL4; assay type: cell-based; conditions: Y2H-strain AH109
T4 construct: expressed in transfected cells; host or cells: yeast Y2H reporter strain AH109
T4 sequence (P04386 768-881): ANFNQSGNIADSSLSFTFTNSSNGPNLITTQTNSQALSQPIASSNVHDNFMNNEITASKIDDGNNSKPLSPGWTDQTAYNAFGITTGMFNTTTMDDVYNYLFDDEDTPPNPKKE

[8] = target: T5, binding domain of yeast protein GAL4 (Saccharomyces cerevisiae, UniProt P04386); assay: Y2H specificity test against binding domain of GAL4; assay type: cell-based; conditions: Y2H-strain AH109
T5 construct: expressed in transfected cells; host or cells: yeast Y2H reporter strain AH109
T5 sequence (P04386 11-38): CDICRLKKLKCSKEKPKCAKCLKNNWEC

[9] = target: T6, Frag2-binding domain peptide (Homo sapiens, UniProt P05787); assay: Y2H test of peptide binding to the same peptide (homodimerization, stickiness); assay type: cell-based; conditions: Y2H-strain AH109
T6 construct: expressed in transfected cells; host or cells: yeast Y2H reporter strain AH109
T6 sequence (P05787 437-464 limits assumed): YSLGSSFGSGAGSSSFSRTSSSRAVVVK

## EQRGELAIKDANAKLSELEAAL [control peptide, reference compound]
His-tagged ClfB protein [1]
  Binding of recombinant ClfB to spotted peptide: no binding was detected

## RAVVVKKIETRDGKLVSESSDVLPK [Frag 3]
ClfB [2]
  Interaction capable with ClfB in the Y2H-system: No
ClfB [3]
  Identified X-times by sequencing: 0
ClfB [3]; listed as Frag3
  Identified X-times by sequencing: No single clone

## YSLGSSFGSGAGSSSFSRTSSSRAVVVKKIETRDGKLVSESSDVLPK [Frag 2-CDS]
ClfB [2]
  Interaction capable with ClfB in the Y2H-system: Yes
ClfB [3]
  Identified X-times by sequencing: 28
ClfB [3]; listed as Frag2-CDS
  Identified X-times by sequencing: 28

## QELMNVKLALDIEIATYRKLLEGEESRLESGMQNMSIHTKTTSGYAGGLSSAYGGLTSPGLSYSLGSSFGSGAGSSSFSRTSSSRAVVVKKIETRDGKLVSESSDVLPK [Clone 10.1]
ClfB [2]
  Interaction capable with ClfB in the Y2H-system: Yes
ClfB [3]
  Identified X-times by sequencing: 8

## SYSLGSSFGSGAGSSSFSRTS [IPEP-21SA]
His-tagged ClfB protein [1]
  Binding of recombinant ClfB to spotted peptide: could bind
[4]
  Competitive inhibition of binding of GST-tagged keratin fragment to ClfB-protein: ~40%
Living S. aureus cells
  Binding to living pathogen cells: binds strongly

## lysosomal sialidase NEU 1: human protein interacting with FnbB, NCBI Protein GI 30583251
GST-tagged FnbB
  Co-purified with GST-tagged FnbB: could be co-purified

## YSLGSSFGSGAGSSSLGRTSSSRAVVVK [stronger binder]
ClfB [5]
  Relative interaction strength to ClfB compared to the original binder: binds with increased affinity
  More beta galactosidase in comparison to the original binder: at least 50%

## YSLGSSFGSGAGSSSFSRTSSSRAVVVKKIETRDGKLVSESSDVLPK (also: fused to a dimerising Fc or GST (not shown)) [GST-tagged Frag2-CDS, Frag2-CDS peptide recombinantly produced in E. coli with N-terminally fused glutathione S-transferase]
His-tagged ClfB protein [6]
  Pulled down (co-purified) with His-tagged ClfB protein: could only be pulled down when His-tagged recombinant ClfB was present
BSA
  Pulled down by BSA coated beads: Neither BSA coated- nor GST coated magnetic beads could pull down; also recorded: neither a) BSA nor c) GST coated beads can pull-down
GST
  Pulled down by GST coated beads: Neither BSA coated- nor GST coated magnetic beads could pull down; also recorded: neither a) BSA nor c) GST coated beads can pull-down
His-tagged ClfB protein [1]
  Binding of recombinant ClfB to spotted peptide: could bind
Living S. aureus cells
  Binding to living pathogen cells: binds strongly

## YSLGSSFGSGAGSSSFSRTSSSRAVVVK [Frag 2-binding domain]
[7]
  Interaction with the activation domain of GAL4 protein: neither interacts
[8]
  Interaction with the binding-domain of GAL4 protein: neither interacts
[9]
  Interaction of the peptide with itself: does not interact with itself
ClfB [2]
  Interaction capable with ClfB in the Y2H-system: Yes
ClfB [2]; listed as Frag2-binding domain
  Interaction capable with ClfB in the Y2H-system: still capable of interaction; also recorded: does only interact with ClfB protein
ClfB [3]
  Identified X-times by sequencing: 18

## YSLGSSFGSGAGSSSSSRTSPSRAVVVK [more stronger binder]
ClfB [5]
  Relative interaction strength to ClfB compared to the original binder: binds with increased strength
  More beta galactosidase in comparison to the original binder: ≥ 100%

## CCT—beta: human protein interacting with FnbB, NCBI Protein GI 2559012
GST-tagged FnbB
  Co-purified with GST-tagged FnbB: could be co-purified

## TYRKLLEGEESRLESGMQNMSIHTKTTSGYAGGLSSAYGGLTSPGLSYSLGSSFGSGAGSSSFSRTSSSRAVVVKKIETRDGKLVSESSDVLPK [Frag 1]
ClfB [2]
  Interaction capable with ClfB in the Y2H-system: Yes
ClfB [3]
  Identified X-times by sequencing: 12

## YSLGSSFGSGAGSSSFSRTSSSRAVVVKKIETRDGKLVSESSDVLPK [Frag 2]
ClfB [2]
  Interaction capable with ClfB in the Y2H-system: Yes
ClfB [3]
  Identified X-times by sequencing: 25
